Key:
soybean [1] = test: preemergence herbicidal activity on soybean; type: in vivo, Glycine max var. Winchester; settings: Glycine max, pre-emergence, 0.3 Kg/Ha, after 12-17 days, read-out: PREEMERGENCE HERBICIDAL ACTIVITY (% CONTROL) SOY
Method: (§1) The (oxaalkyl)phenyl-substituted heterocycles of this invention were tested for pre- and postemergence herbicidal activity using a variety of crops and weeds. The test plants included soybean (Glycine max var. Winchester),field corn (Zea mays var. Pioneer 3732), wheat (Triticum aestivum var. Lew), morningglory (Ipomea lacunosa or Ipomea hederacea), […] (Abutilon theophrasti), green foxtail (Setaria viridis), Johnsongrass (Sorghum halepense), blackgrass (Aloepecurus myosuroides), common chickweed (Stellaria media), and common cocklebur (Xanthium strumarium L.).
(§2) For preemergence testing, two disposable fiber flats (8 cm×15 cm×25 cm) for each rate of application of each candidate herbicide were filled to an approximate depth of 6.5 cm with steam-sterilized sandy loam soil. The soil was leveled and impressed with a template to provide five evenly spaced furrows 13 cm long and 0.5 cm deep in each flat. Seeds of soybean, wheat, corn, green foxtail, and johnsongrass were planted in the furrows of the first flat, and seeds of velvetleaf, morningglory, common chickweed, cocklebur, and blackgrass were planted in the furrows of the second flat. The five-row template was employed to firmly press the seeds into place. A topping soil of equal portions of sand and sandy loam soil was placed uniformly on top of each flat to a depth of approximately 0.5 cm. Flats for postemergence testing were prepared in the same manner except that they were planted 9-14 days prior to the preemergence flats and were placed in a greenhouse and watered, thus allowing the seeds to germinate and the foliage to develop.
(§3) In both pre- and postemergence tests, a stock solution of the candidate herbicide was prepared by dissolving 0.27 g of the compound in 20 mL of water/acetone (50/50) containing 0.5% v/v sorbitan monolaurate. For an application rate of 3000 g/ha of herbicide a 10 mL portion of the stock solution was diluted with water/acetone (50/50) to 45 mL.
(§4) The preemergence flats were initially subjected to a light water spray. The four flats were placed two by two along a conveyor belt (i.e., the two preemergence followed by the two postemergence flats). The conveyor belt fed under a spray nozzle mounted about ten inches above the postemergent foliage. The preemergent flats were elevated on the belt so that the soil surface was at the same level below the spray nozzle as the foliage canopy of the postemergent plants. The spray of herbicidal solution was commenced and once stabilized, the flats were passed under the spray at a speed to receive a coverage equivalent of 1000 L/ha. At this coverage the application rates are those shown in the above table for the individual herbicidal solutions. The preemergence flats were watered immediately thereafter, placed in the greenhouse and watered regularly at the soil surface. The postemergence flats were immediately placed in the green-house and not watered until 24 hours after treatment with the test solution. Thereafter they were regularly watered at ground level. After 12-17 days the plants were examined and the phytotoxicity data were recorded.
(§5) Phytotoxicity data were taken as percent control. Percent control was by a method similar to the 0 to 1 00 rating system disclosed in "Research Methods in Weed Science," 2nd ed., B. Truelove, Ed.; Southern Weed Science Society; Auburn University, Auburn, Ala., 1977.

wheat [2] = test: preemergence herbicidal activity on wheat; type: in vivo, Triticum aestivum var. Lew; settings: Triticum aestivum, pre-emergence, 0.3 Kg/Ha, after 12-17 days, read-out: PREEMERGENCE HERBICIDAL ACTIVITY (% CONTROL) WHT
Method: as §1, §2, §3, §4, §5

corn [3] = test: preemergence herbicidal activity on corn; type: in vivo, Zea mays var. Pioneer 3732; settings: Zea mays, pre-emergence, 0.3 Kg/Ha, after 12-17 days, read-out: PREEMERGENCE HERBICIDAL ACTIVITY (% CONTROL) CRN
Method: as §1, §2, §3, §4, §5

velvetleaf [4] = test: preemergence herbicidal activity on velvetleaf; type: in vivo; settings: Abutilon theophrasti, pre-emergence, 0.3 Kg/Ha, after 12-17 days, read-out: PREEMERGENCE HERBICIDAL ACTIVITY (% CONTROL) ABUTH
Method: as §1, §2, §3, §4, §5

morningglory [5] = test: preemergence herbicidal activity on morningglory; type: in vivo, Ipomea lacunosa or Ipomea hederacea; settings: Ipomoea, pre-emergence, 0.3 Kg/Ha, after 12-17 days, read-out: PREEMERGENCE HERBICIDAL ACTIVITY (% CONTROL) IPOSS
Method: as §1, §2, §3, §4, §5

chickweed [6] = test: preemergence herbicidal activity on chickweed; type: in vivo; settings: Stellaria media, pre-emergence, 0.3 Kg/Ha, after 12-17 days, read-out: PREEMERGENCE HERBICIDAL ACTIVITY (% CONTROL) STEME
Method: as §1, §2, §3, §4, §5

cocklebur [7] = test: preemergence herbicidal activity on cocklebur; type: in vivo, Xanthium strumarium L.; settings: Xanthium strumarium, pre-emergence, 0.3 Kg/Ha, after 12-17 days, read-out: PREEMERGENCE HERBICIDAL ACTIVITY (% CONTROL) XANPE
Method: as §1, §2, §3, §4, §5

blackgrass [8] = test: preemergence herbicidal activity on blackgrass; type: in vivo, Aloepecurus myosuroides; settings: Alopecurus myosuroides, pre-emergence, 0.3 Kg/Ha, after 12-17 days, read-out: PREEMERGENCE HERBICIDAL ACTIVITY (% CONTROL) ALOMY
Method: as §1, §2, §3, §4, §5

green foxtail [9] = test: preemergence herbicidal activity on green foxtail; type: in vivo; settings: Setaria viridis, pre-emergence, 0.3 Kg/Ha, after 12-17 days, read-out: PREEMERGENCE HERBICIDAL ACTIVITY (% CONTROL) SETVI
Method: as §1, §2, §3, §4, §5

johnsongrass [10] = test: preemergence herbicidal activity on johnsongrass; type: in vivo; settings: Sorghum halepense, pre-emergence, 0.3 Kg/Ha, after 12-17 days, read-out: PREEMERGENCE HERBICIDAL ACTIVITY (% CONTROL) SORHA
Method: as §1, §2, §3, §4, §5

soybean [11] = test: postemergence herbicidal activity on soybean; type: in vivo, Glycine max var. Winchester; settings: Glycine max, post-emergence, 0.3 Kg/Ha, after 12-17 days, read-out: POSTEMERGENCE HERBICIDAL ACTIVITY (% CONTROL) SOY
Method: as §1, §2, §3, §4, §5

wheat [12] = test: postemergence herbicidal activity on wheat; type: in vivo, Triticum aestivum var. Lew; settings: Triticum aestivum, post-emergence, 0.3 Kg/Ha, after 12-17 days, read-out: POSTEMERGENCE HERBICIDAL ACTIVITY (% CONTROL) WHT
Method: as §1, §2, §3, §4, §5

corn [13] = test: postemergence herbicidal activity on corn; type: in vivo, Zea mays var. Pioneer 3732; settings: Zea mays, post-emergence, 0.3 Kg/Ha, after 12-17 days, read-out: POSTEMERGENCE HERBICIDAL ACTIVITY (% CONTROL) CRN
Method: as §1, §2, §3, §4, §5

velvetleaf [14] = test: postemergence herbicidal activity on velvetleaf; type: in vivo; settings: Abutilon theophrasti, post-emergence, 0.3 Kg/Ha, after 12-17 days, read-out: POSTEMERGENCE HERBICIDAL ACTIVITY (% CONTROL) ABUTH
Method: as §1, §2, §3, §4, §5

morningglory [15] = test: postemergence herbicidal activity on morningglory; type: in vivo, Ipomea lacunosa or Ipomea hederacea; settings: Ipomoea, post-emergence, 0.3 Kg/Ha, after 12-17 days, read-out: POSTEMERGENCE HERBICIDAL ACTIVITY (% CONTROL) IPOSS
Method: as §1, §2, §3, §4, §5

chickweed [16] = test: postemergence herbicidal activity on chickweed; type: in vivo; settings: Stellaria media, post-emergence, 0.3 Kg/Ha, after 12-17 days, read-out: POSTEMERGENCE HERBICIDAL ACTIVITY (% CONTROL) STEME
Method: as §1, §2, §3, §4, §5

cocklebur [17] = test: postemergence herbicidal activity on cocklebur; type: in vivo, Xanthium strumarium L.; settings: Xanthium strumarium, post-emergence, 0.3 Kg/Ha, after 12-17 days, read-out: POSTEMERGENCE HERBICIDAL ACTIVITY (% CONTROL) XANPE
Method: as §1, §2, §3, §4, §5

blackgrass [18] = test: postemergence herbicidal activity on blackgrass; type: in vivo, Aloepecurus myosuroides; settings: Alopecurus myosuroides, post-emergence, 0.3 Kg/Ha, after 12-17 days, read-out: POSTEMERGENCE HERBICIDAL ACTIVITY (% CONTROL) ALOMY
Method: as §1, §2, §3, §4, §5

green foxtail [19] = test: postemergence herbicidal activity on green foxtail; type: in vivo; settings: Setaria viridis, post-emergence, 0.3 Kg/Ha, after 12-17 days, read-out: POSTEMERGENCE HERBICIDAL ACTIVITY (% CONTROL) SETVI
Method: as §1, §2, §3, §4, §5

johnsongrass [20] = test: postemergence herbicidal activity on johnsongrass; type: in vivo; settings: Sorghum halepense, post-emergence, 0.3 Kg/Ha, after 12-17 days, read-out: POSTEMERGENCE HERBICIDAL ACTIVITY (% CONTROL) SORHA
Method: as §1, §2, §3, §4, §5

In the case of Cc1nn(-c2cc(CC(Cl)C(C)(C)O)c(Cl)cc2F)c(=O)n1C(F)F (centres unmarked) [Compound 2], the activity at 300 g/ha (soybean [1]) was 60%, the activity at 300 g/ha (wheat [2]) was 70% and the activity at 300 g/ha (corn [3]) was 80%. The activity at 300 g/ha (velvetleaf [4]) was 100%, the activity at 300 g/ha (morningglory [5]) was 100% and the activity at 300 g/ha (chickweed [6]) was 90%. It also gave an activity at 300 g/ha (cocklebur [7]) of 60%, an activity at 300 g/ha (blackgrass [8]) of 70% and an activity at 300 g/ha (green foxtail [9]) of 100%. For the same compound, the activity at 300 g/ha (johnsongrass [10]) was 90%, the activity at 300 g/ha (soybean [11]) was 80% and the activity at 300 g/ha (wheat [12]) was 60%. The activity at 300 g/ha (corn [13]) was 80%, the activity at 300 g/ha (velvetleaf [14]) was 100% and the activity at 300 g/ha (morningglory [15]) was 100%. For the same compound, the activity at 300 g/ha (chickweed [16]) was 70%, the activity at 300 g/ha (cocklebur [17]) was 55% and the activity at 300 g/ha (blackgrass [18]) was 70%. For the same compound, the activity at 300 g/ha (green foxtail [19]) was 80% and the activity at 300 g/ha (johnsongrass [20]) was 80%.
